From patent publication US20090099237A1, “Methods of treating inflammatory diseases” (Roche Palo Alto LLC, priority 2007, published 2009)
pIC50: −log10 of the molar value.

Tests used:
CK1α = molecular target: T1, CK1α (Homo sapiens, UniProt P48729); assay: In vitro kinase assay (33P, peptide substrate); format: biochemical
T1 construct: purchased Invitrogen

[1] = test system: IL-8 production in neutrophils; assay: Neutrophil assay, IL-8 production; format: cell-based; details: human neutrophils stimulated by inflammatory agents; FIG. 2
Text: (§1) Selective CK1α, CK1α-CK1δ, CK1α-CK1ε or CK1α-CK1δ-CK1ε inhibitors can be tested for their antiinflammatory effects using a variety of in vitro and in vivo tests that are well known in the art. One such in vitro test involves the application of the inhibitor to human neutrophils to observe whether the induction of inflammatory cytokines, such as IL-8, by tumor necrosis factor (TNF) or lipopolysaccharide (LPS) can be reduced. This test is further described in Example 3. An example of an in vivo test, as described in Example 4, is the air pouch model of inflammatory synovitis in mice in which the inhibitors are tested for their blockade of neutrophil influx as well as of inflammatory cytokine accumulation.
The Histopaque 1077 and 1119 gradient density centrifugation method (Sigma-Aldrich) was used to isolate granulocytes from human blood. The granulocytes were recovered from the 1077/1119 interphase, washed twice with PBS. The red blood cells were lysed with PureGene red cell lysis buffer (Gentra Biosystems). The cells were washed again and resuspended in growth media (RPMI, 10% FBS, β-mercaptoethanol, Pen/Strep/glutamine and sodium pyruvate) at a density of 1 to 5 million per ml. […] The supernatant was analyzed for cytokine production (Luminex human 22-plex assay) and the cells were lysed for RNA production and analysis.

[2] = test system: LPS-induced air pouch synovitis; assay: Air pouch synovitis model; format: in vivo, Balbc/J mice; details: 1 μg LPS, FIG. 3
Text: as §1
Adult Balbc/J mice were purchased from Charles River Labs and housed and utilized according IACUC protocols and standards. The airpouch was inflated on the dorsal surface of each mouse with 3 ml of air, after light anesthesia with CO2/O2 mix. Three days later each pouch was re-inflated with 3 mls of air. After an additional three days, the pouches were injected with vehicle or compound (normally in 0.1% DMSO in PBS) in 1 ml per pouch. After 20 to 30 minutes, each pouch received 1 μg of LPS or control (PBS). The animals were euthanized four to six hours later. The pouches were flushed with 2 ml of PBS, the cells were then collected, counted and normalized for volume recovered. The fluid recovered was analyzed for cytokine production (Luminex Mouse 21-plex assay). The cells were lysed for RNA or protein analysis.

T1 sequence (P48729 whole entry): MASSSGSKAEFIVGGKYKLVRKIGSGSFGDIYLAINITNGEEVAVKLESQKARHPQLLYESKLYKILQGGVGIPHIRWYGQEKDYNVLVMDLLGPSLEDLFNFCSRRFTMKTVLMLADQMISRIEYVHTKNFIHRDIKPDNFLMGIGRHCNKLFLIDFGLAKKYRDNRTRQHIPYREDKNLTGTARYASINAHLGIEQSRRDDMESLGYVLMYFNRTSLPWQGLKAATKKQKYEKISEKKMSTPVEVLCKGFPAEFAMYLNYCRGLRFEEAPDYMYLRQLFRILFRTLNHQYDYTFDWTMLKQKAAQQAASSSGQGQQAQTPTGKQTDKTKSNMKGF

NC(=O)c1ccc(-c2nc(-c3ccc4c(c3)OCO4)c(-c3ccccn3)[nH]2)cc1 [SB431542, 4-(4-benzo-[1,3]dioxol-5-yl-5-pyridin-2-yl-1H-imidazol-2-yl)benzamide]
pIC50 (CK1α): 5.85 | inhibition of IL-8 production in neutrophils [1]: dose-dependent inhibition | production of IL-6 ([2]; mouse air pouch fluid): inhibited | production of MCP1 ([2]; mouse air pouch fluid): inhibited | neutrophil influx ([2]; mouse air pouch, compound injected into pouch): inhibited
